These results are taken from US10059715B2, “Acid addition salt of ibrutinib” (ratiopharm GmbH, priority 2014, dated 2018).

Structures are written as SMILES. Converted amounts (≈) assume the structure as drawn. Where a name gives a salt, the structure may show the parent alone.

Data set [1] can be described thus: Comparison of solubilities at pH values relevant for the gastrointestinal tract.
Another data set can be described thus: physchem. Conditions: 37 °C, thermodynamic from solid.
The conditions of data set [2]: at about pH 8; cited from earlier work.
Setting [3] is: 20 mMol NaAc solution, pH 4.5, aqueous buffer.

Turning to `C=CC(=O)N1CCC[C@@H](n2nc(-c3ccc(Oc4ccccc4)cc3)c3c(N)ncnc32)C1` [HCl, ibrutinib hydrochloride], the solubility (in general, the concentration that dissolves in the medium under given conditions) in data set [1] (pH 1.2 (0.1M HCl), 15 min, listed as crystalline ibrutinib hydrochloride, hydrochloride) was 7370 µg/mL; in data set [1] (pH 1.2 (0.1M HCl), 1 h, hydrochloride), 7720 µg/mL; in data set [1] (pH 1.2 (0.1M HCl), 24 h, hydrochloride), 7380 µg/mL; in data set [1] (pH 4.5 (20 mMol NaAc), 15 min), 10 µg/mL; in data set [1] (pH 4.5 (20 mMol NaAc), 24 h, 37° C., hydrochloride) it was 460 µg/mL; in data set [1] (pH 6.8 (50 mMol KH2PO4), 15 min) it was 10 µg/mL. Moreover, the solubility is 50 µg/mL in data set [1] (pH 6.8 (50 mMol KH2PO4), 1 h, 37° C., hydrochloride) and 410 µg/mL in data set [1] (pH 6.8 (50 mMol KH2PO4), 24 h, 37° C., hydrochloride). The molecule also came in with a solubility at 1 h in “physchem” (setting [3]) of 20 µg/mL.
`C=CC(=O)N1CCC[C@@H](n2nc(-c3ccc(Oc4ccccc4)cc3)c3c(N)ncnc32)C1` [base, 1-[(3R)-3[4-Amino-3-(4-phenoxyphenyl)-1H-pyrazolo[3,4-d]pyrimidin-1-yl]piperidin-1-yl]prop-2-en-1one]: the solubility in data set [1] (pH 1.2 (0.1M HCl), 15 min, listed as ibrutinib base (form A)) worked out at 2070 µg/mL (≈ 4700 µM); in data set [1] (pH 1.2 (0.1M HCl), 1 h) it was 2640 µg/mL (≈ 5990 µM); in data set [1] (pH 1.2 (0.1M HCl), 24 h), 2640 µg/mL (≈ 5990 µM); in data set [1] (pH 4.5 (20 mMol NaAc), 1 h, 37° C.), 10 µg/mL (≈ 22.7 µM); in data set [1] (pH 4.5 (20 mMol NaAc), 24 h, 37° C.), 10 µg/mL (≈ 22.7 µM); in data set [1] (pH 6.8 (50 mMol KH2PO4), 1 h, 37° C.) it was 10 µg/mL (≈ 22.7 µM). In data set [1] (pH 6.8 (50 mMol KH2PO4), 24 h, 37° C.), the solubility was 10 µg/mL (≈ 22.7 µM). Moreover, the “solubility (in words)” value is listed as “substantially insoluble” in data set [1] (pH 4.5, time not stated) and “substantially insoluble” in data set [1] (pH 6.8, time not stated). In addition, the observed aqueous solubility result in data set [2] is listed as “about 0.013 mg/ml”. Besides, the solubility at 15 min in “physchem” (setting [3]) was determined as 10 µg/mL (≈ 22.7 µM); in “physchem” (50 mMol KH2PO4 solution, pH 6.8, aqueous buffer), 10 µg/mL (≈ 22.7 µM).
